The supplement of paper PMC10307832

Legend:
Assay in all cases: relative viability (nuclei count vs DMSO), 5 days (fraction); higher = more cells survive
[1] = compound: CC(C)=CC[C@@H](O)C1=CC(=O)c2c(O)ccc(O)c2C1=O [Shikonin] + CCNC(=O)c1noc(-c2cc(C(C)C)c(O)cc2O)c1-c1ccc(CN2CCOCC2)cc1 [Luminespib] (partner 0.01 µM)
Procedure, shortened: (§1)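 The day after seeding in 1536-well plates, lung cancer cell lines were treated by pin tool with a single drug, or with a fixed anchor-drug dose together with five library-drug doses (not always all listed) in √10 steps. After 5 days, a combined fix-and-stain solution (final 0.05% Triton X-100, 1% formaldehyde, 1 ug/ml Hoechst) was added. Nuclei counted on 4× images gave relative viability as treated counts over vehicle counts, reported as the median of duplicate plates.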

[2] = compound: CC(C)=CC[C@@H](O)C1=CC(=O)c2c(O)ccc(O)c2C1=O [Shikonin] + O=C(c1cc(Cc2n[nH]c(=O)c3ccccc23)ccc1F)N1CCN(C(=O)C2CC2)CC1 [Olaparib] (partner 8 µM)
Procedure, shortened: as §1

[3] = compound: CC(C)N(CCCNC(=O)Nc1ccc(C(C)(C)C)cc1)C[C@H]1O[C@@H](n2ccc3c(N)ncnc32)[C@H](O)[C@@H]1O + CS(=O)(=O)N1CCN(Cc2cc3nc(-c4cccc5[nH]ncc45)nc(N4CCOCC4)c3s2)CC1 [Pictilisib] (partner 1 µM)
Procedure, shortened: as §1

[4] = compound: CC(C)N(CCCNC(=O)Nc1ccc(C(C)(C)C)cc1)C[C@H]1O[C@@H](n2ccc3c(N)ncnc32)[C@H](O)[C@@H]1O + NC(=O)Nc1cc(-c2cccc(F)c2)sc1C(=O)N[C@H]1CCCNC1 [AZD7762] (partner 0.2 µM)
Procedure, shortened: as §1

For LC-2-ad, the relative viability ([1]; first compound 0.01 µM) was 0.934, the relative viability ([1]; first compound 0.1 µM) was 1.11 and the relative viability ([1]; first compound 0.3162 µM) was 1.08. The relative viability ([1]; first compound 1 µM) was 1.07, the relative viability ([2]; first compound 0.01 µM) was 0.736 and the relative viability ([2]; first compound 0.1 µM) was 0.872. The relative viability ([2]; first compound 0.3162 µM) was 0.689, the relative viability ([2]; first compound 1 µM) was 0.765 and the relative viability ([3]; first compound 0.08 µM) was 0.612. The relative viability ([3]; first compound 0.253 µM) was 0.518, the relative viability ([3]; first compound 0.8 µM) was 0.413 and the relative viability ([3]; first compound 2.53 µM) was 0.511. For the same cell line, the relative viability ([3]; first compound 8 µM) was 0.427, the relative viability ([4]; first compound 0.08 µM) was 0.834 and the relative viability ([4]; first compound 0.253 µM) was 0.802. It also gave a relative viability ([4]; first compound 0.8 µM) of 0.677, a relative viability ([4]; first compound 2.53 µM) of 0.787 and a relative viability ([4]; first compound 8 µM) of 0.771.
NCI-H1915 was tested, and the relative viability ([1]; first compound 0.01 µM) was 1, the relative viability ([1]; first compound 0.1 µM) was 0.758 and the relative viability ([1]; first compound 0.3162 µM) was 0.849. For the same cell line, the relative viability ([1]; first compound 1 µM) was 0.85, the relative viability ([2]; first compound 0.01 µM) was 0.254 and the relative viability ([2]; first compound 0.1 µM) was 0.268. It also gave a relative viability ([2]; first compound 0.3162 µM) of 0.257, a relative viability ([2]; first compound 1 µM) of 0.245 and a relative viability ([3]; first compound 0.08 µM) of 0.939. It also gave a relative viability ([3]; first compound 0.253 µM) of 0.879, a relative viability ([3]; first compound 0.8 µM) of 0.868 and a relative viability ([3]; first compound 2.53 µM) of 0.912. For the same cell line, the relative viability ([3]; first compound 8 µM) was 0.808, the relative viability ([4]; first compound 0.08 µM) was 0.674 and the relative viability ([4]; first compound 0.253 µM) was 0.726. It also gave a relative viability ([4]; first compound 0.8 µM) of 0.607, a relative viability ([4]; first compound 2.53 µM) of 0.668 and a relative viability ([4]; first compound 8 µM) of 0.56.
Cell Line NCI-H1793 has a relative viability ([1]; first compound 0.01 µM) of 0.164, a relative viability ([1]; first compound 0.1 µM) of 0.196 and a relative viability ([1]; first compound 0.3162 µM) of 0.155. For the same cell line, the relative viability ([1]; first compound 1 µM) was 0.535, the relative viability ([2]; first compound 0.01 µM) was 1.12 and the relative viability ([2]; first compound 0.1 µM) was 0.995. For the same cell line, the relative viability ([2]; first compound 0.3162 µM) was 1, the relative viability ([2]; first compound 1 µM) was 0.914 and the relative viability ([3]; first compound 0.08 µM) was 0.296. The relative viability ([3]; first compound 0.8 µM) was 0.369, the relative viability ([3]; first compound 2.53 µM) was 0.281 and the relative viability ([3]; first compound 8 µM) was 0.35. It also gave a relative viability ([4]; first compound 0.08 µM) of 0.614, a relative viability ([4]; first compound 0.8 µM) of 0.386 and a relative viability ([4]; first compound 2.53 µM) of 0.437. The relative viability ([4]; first compound 8 µM) was 0.426.
NCI-H2085 was tested, and the relative viability ([1]; first compound 0.01 µM) was 0.443, the relative viability ([1]; first compound 0.1 µM) was 0.471 and the relative viability ([1]; first compound 0.3162 µM) was 0.336. For the same cell line, the relative viability ([1]; first compound 1 µM) was 0.379, the relative viability ([2]; first compound 0.01 µM) was 0.756 and the relative viability ([2]; first compound 0.1 µM) was 0.82. The relative viability ([2]; first compound 0.3162 µM) was 0.725, the relative viability ([2]; first compound 1 µM) was 0.76 and the relative viability ([3]; first compound 0.08 µM) was 0.456. For the same cell line, the relative viability ([3]; first compound 0.253 µM) was 0.405, the relative viability ([3]; first compound 0.8 µM) was 0.429 and the relative viability ([3]; first compound 2.53 µM) was 0.455. The relative viability ([3]; first compound 8 µM) was 0.568, the relative viability ([4]; first compound 0.08 µM) was 0.979 and the relative viability ([4]; first compound 0.253 µM) was 0.766. It also gave a relative viability ([4]; first compound 0.8 µM) of 0.921, a relative viability ([4]; first compound 2.53 µM) of 1.08 and a relative viability ([4]; first compound 8 µM) of 1.
LXF-289 showed a relative viability ([1]; first compound 0.01 µM) of 0.721, a relative viability ([1]; first compound 0.1 µM) of 0.625 and a relative viability ([1]; first compound 0.3162 µM) of 0.604. The relative viability ([1]; first compound 1 µM) was 0.814, the relative viability ([2]; first compound 0.01 µM) was 1.11 and the relative viability ([2]; first compound 0.1 µM) was 0.966. For the same cell line, the relative viability ([2]; first compound 0.3162 µM) was 1.11, the relative viability ([2]; first compound 1 µM) was 1.06 and the relative viability ([3]; first compound 0.08 µM) was 0.775. The relative viability ([3]; first compound 0.253 µM) was 0.752, the relative viability ([3]; first compound 0.8 µM) was 0.788 and the relative viability ([3]; first compound 2.53 µM) was 0.852. The relative viability ([3]; first compound 8 µM) was 0.738, the relative viability ([4]; first compound 0.08 µM) was 1.1 and the relative viability ([4]; first compound 0.253 µM) was 1.1. For the same cell line, the relative viability ([4]; first compound 0.8 µM) was 1.09, the relative viability ([4]; first compound 2.53 µM) was 1.12 and the relative viability ([4]; first compound 8 µM) was 1.
Work on RERF-LC-KJ yielded a relative viability ([1]; first compound 0.01 µM) of 1.2, a relative viability ([1]; first compound 0.1 µM) of 1.29 and a relative viability ([1]; first compound 0.3162 µM) of 1.2. For the same cell line, the relative viability ([1]; first compound 1 µM) was 1.11, the relative viability ([2]; first compound 0.01 µM) was 1.05 and the relative viability ([2]; first compound 0.1 µM) was 1.08. The relative viability ([2]; first compound 0.3162 µM) was 0.842, the relative viability ([2]; first compound 1 µM) was 0.62 and the relative viability ([3]; first compound 0.08 µM) was 0.597. For the same cell line, the relative viability ([3]; first compound 0.253 µM) was 0.511, the relative viability ([3]; first compound 0.8 µM) was 0.525 and the relative viability ([3]; first compound 2.53 µM) was 0.493. The relative viability ([3]; first compound 8 µM) was 0.501, the relative viability ([4]; first compound 0.08 µM) was 1.09 and the relative viability ([4]; first compound 0.253 µM) was 0.954. It also gave a relative viability ([4]; first compound 0.8 µM) of 0.867, a relative viability ([4]; first compound 2.53 µM) of 0.981 and a relative viability ([4]; first compound 8 µM) of 0.84.
Cell Line NCI-H727 has a relative viability ([1]; first compound 0.01 µM) of 0.412, a relative viability ([1]; first compound 0.1 µM) of 0.462 and a relative viability ([1]; first compound 0.3162 µM) of 0.233. It also gave a relative viability ([1]; first compound 1 µM) of 0.329, a relative viability ([2]; first compound 0.01 µM) of 0.685 and a relative viability ([2]; first compound 0.1 µM) of 0.737. For the same cell line, the relative viability ([2]; first compound 0.3162 µM) was 0.648, the relative viability ([2]; first compound 1 µM) was 0.583 and the relative viability ([3]; first compound 0.08 µM) was 0.358. It also gave a relative viability ([3]; first compound 0.253 µM) of 0.375, a relative viability ([3]; first compound 0.8 µM) of 0.397 and a relative viability ([3]; first compound 2.53 µM) of 0.458. For the same cell line, the relative viability ([3]; first compound 8 µM) was 0.331, the relative viability ([4]; first compound 0.08 µM) was 0.634 and the relative viability ([4]; first compound 0.253 µM) was 0.624. For the same cell line, the relative viability ([4]; first compound 0.8 µM) was 0.649, the relative viability ([4]; first compound 2.53 µM) was 0.328 and the relative viability ([4]; first compound 8 µM) was 0.694.
NCI-H1666 was tested, and the relative viability ([1]; first compound 0.01 µM) was 0.986, the relative viability ([1]; first compound 0.1 µM) was 1.08 and the relative viability ([1]; first compound 0.3162 µM) was 0.932. For the same cell line, the relative viability ([1]; first compound 1 µM) was 1.04, the relative viability ([2]; first compound 0.01 µM) was 0.748 and the relative viability ([2]; first compound 0.1 µM) was 0.732. It also gave a relative viability ([2]; first compound 0.3162 µM) of 0.773, a relative viability ([2]; first compound 1 µM) of 0.699 and a relative viability ([3]; first compound 0.08 µM) of 0.354. It also gave a relative viability ([3]; first compound 0.253 µM) of 0.405, a relative viability ([3]; first compound 0.8 µM) of 0.39 and a relative viability ([3]; first compound 2.53 µM) of 0.405. For the same cell line, the relative viability ([3]; first compound 8 µM) was 0.355, the relative viability ([4]; first compound 0.08 µM) was 0.924 and the relative viability ([4]; first compound 0.253 µM) was 0.898. For the same cell line, the relative viability ([4]; first compound 0.8 µM) was 0.758, the relative viability ([4]; first compound 2.53 µM) was 0.844 and the relative viability ([4]; first compound 8 µM) was 0.773.
Work on NCI-H2087 yielded a relative viability ([1]; first compound 0.01 µM) of 0.185, a relative viability ([1]; first compound 0.1 µM) of 0.167 and a relative viability ([1]; first compound 0.3162 µM) of 0.156. For the same cell line, the relative viability ([1]; first compound 1 µM) was 0.153, the relative viability ([2]; first compound 0.01 µM) was 0.696 and the relative viability ([2]; first compound 0.1 µM) was 0.544. For the same cell line, the relative viability ([2]; first compound 0.3162 µM) was 0.592, the relative viability ([2]; first compound 1 µM) was 0.551 and the relative viability ([3]; first compound 0.08 µM) was 0.898. The relative viability ([3]; first compound 0.253 µM) was 0.778, the relative viability ([3]; first compound 0.8 µM) was 0.745 and the relative viability ([3]; first compound 2.53 µM) was 0.963. The relative viability ([3]; first compound 8 µM) was 0.653, the relative viability ([4]; first compound 0.08 µM) was 1.31 and the relative viability ([4]; first compound 0.253 µM) was 1.26. The relative viability ([4]; first compound 0.8 µM) was 1.51, the relative viability ([4]; first compound 2.53 µM) was 1.38 and the relative viability ([4]; first compound 8 µM) was 1.29.
